System: 889142-216-R-J1-PDC complex spheroid viability
Assay: Anticancer human tumor 889142-216-R-J1-PDC patient-derived bladder carcinoma cell line growth inhibition [POLQ]
Conditions: for IC50: curve of first compound; for viability, T/C: stronger effect = lower value
Method in brief: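 PDC + HUVEC + MSC complex spheroids; POLQ inhibitors ± partner drugs; top conc. at/near clinical Cmax, else 10 microM (SN-38 1 microM), half-log dilutions; 37 degrees C, 5% CO2.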

[1] = second compound 0.0316 µM, first compound 0.0316 µM
[2] = second compound 0.0316 µM, first compound 0.1 µM
[3] = second compound 0.0316 µM, first compound 0.316 µM
[4] = second compound 0.0316 µM, first compound 1 µM
[5] = second compound 0.0316 µM, first compound 3.16 µM
[6] = second compound 0.0316 µM, first compound 10 µM
[7] = second compound 0.1 µM, first compound 0.0316 µM
[8] = second compound 0.1 µM, first compound 0.1 µM
[9] = second compound 0.1 µM, first compound 0.316 µM
[10] = second compound 0.1 µM, first compound 1 µM
[11] = second compound 0.1 µM, first compound 3.16 µM
[12] = second compound 0.1 µM, first compound 10 µM
[13] = second compound 0.316 µM, first compound 0.0316 µM
[14] = second compound 0.316 µM, first compound 0.1 µM
[15] = second compound 0.316 µM, first compound 0.316 µM
[16] = second compound 0.316 µM, first compound 1 µM
[17] = second compound 0.316 µM, first compound 3.16 µM
[18] = second compound 0.316 µM, first compound 10 µM
[19] = second compound 1 µM, first compound 0.0316 µM
[20] = second compound 1 µM, first compound 0.1 µM
[21] = second compound 1 µM, first compound 0.316 µM
[22] = second compound 1 µM, first compound 1 µM
[23] = second compound 1 µM, first compound 3.16 µM
[24] = second compound 1 µM, first compound 10 µM
[25] = second compound 3.16 µM, first compound 0.0316 µM
[26] = second compound 3.16 µM, first compound 0.1 µM
[27] = second compound 3.16 µM, first compound 0.316 µM
[28] = second compound 3.16 µM, first compound 1 µM
[29] = second compound 3.16 µM, first compound 3.16 µM
[30] = second compound 3.16 µM, first compound 10 µM
[31] = second compound 10 µM, first compound 0.0316 µM
[32] = second compound 10 µM, first compound 0.1 µM
[33] = second compound 10 µM, first compound 0.316 µM
[34] = second compound 10 µM, first compound 1 µM
[35] = second compound 10 µM, first compound 3.16 µM
[36] = second compound 10 µM, first compound 10 µM
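Also: spheroids exposed to compounds for seven days.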
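For viability, T/C in this document: 100% = DMSO vehicle control viability.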

CC1COCCN1c1cc(C2(O)CC3CCC(C2)O3)c2cnn(-c3ccn[nH]3)c2n1 (stereo unspecified) + Nc1ccc(C#CCN(C(=O)Cc2ncc(C(F)(F)F)cc2C(F)(F)F)c2ccc(F)cc2)nn1
IC50 (second compound 0.0316 µM): 0.101 µM
IC50 (second compound 0.1 µM): 0.251 µM
IC50 (second compound 0.316 µM): 0.209 µM
IC50 (second compound 1 µM): 0.0997 µM
IC50 (second compound 3.16 µM): 0.121 µM
IC50 (second compound 10 µM): 0.108 µM
viability, T/C [1]: 63.7%
viability, T/C [2]: 47.1%
viability, T/C [3]: 39.1%
viability, T/C [4]: 35.1%
viability, T/C [5]: 30.5%
viability, T/C [6]: 20.3%
viability, T/C [7]: 67.2%
viability, T/C [8]: 56.4%
viability, T/C [9]: 49.4%
viability, T/C [10]: 39.4%
viability, T/C [11]: 31.6%
viability, T/C [12]: 26.1%
viability, T/C [13]: 71.9%
viability, T/C [14]: 62%
viability, T/C [15]: 40.9%
viability, T/C [16]: 35%
viability, T/C [17]: 27%
viability, T/C [18]: 20%
viability, T/C [19]: 64.5%
viability, T/C [20]: 47.3%
viability, T/C [21]: 37.4%
viability, T/C [22]: 35.4%
viability, T/C [23]: 29.6%
viability, T/C [24]: 19.4%
viability, T/C [25]: 57.8%
viability, T/C [26]: 49.3%
viability, T/C [27]: 44.8%
viability, T/C [28]: 36%
viability, T/C [29]: 31.2%
viability, T/C [30]: 16.6%
viability, T/C [31]: 67%
viability, T/C [32]: 44.3%
viability, T/C [33]: 42.1%
viability, T/C [34]: 31.2%
viability, T/C [35]: 26.8%
viability, T/C [36]: 16.2%

CCCS(=O)(=O)Nc1ccc(F)c(C(=O)c2c[nH]c3ncc(-c4ccc(Cl)cc4)cc23)c1F + Nc1ccc(C#CCN(C(=O)Cc2ncc(C(F)(F)F)cc2C(F)(F)F)c2ccc(F)cc2)nn1
IC50 (second compound 0.0316 µM): 7.49 µM
IC50 (second compound 0.1 µM): 7.28 µM
IC50 (second compound 0.316 µM): 7.56 µM
IC50 (second compound 1 µM): > 10 µM
IC50 (second compound 3.16 µM): 9.53 µM
IC50 (second compound 10 µM): > 10 µM
viability, T/C [1]: 97.8%
viability, T/C [2]: 118%
viability, T/C [3]: 122%
viability, T/C [4]: 98.3%
viability, T/C [5]: 71.5%
viability, T/C [6]: 42.8%
viability, T/C [7]: 114%
viability, T/C [8]: 98.7%
viability, T/C [9]: 92.8%
viability, T/C [10]: 96.5%
viability, T/C [11]: 69.6%
viability, T/C [12]: 41.7%
viability, T/C [13]: 105%
viability, T/C [14]: 101%
viability, T/C [15]: 87.4%
viability, T/C [16]: 78.6%
viability, T/C [17]: 80.3%
viability, T/C [18]: 40.6%
viability, T/C [19]: 105%
viability, T/C [20]: 81.6%
viability, T/C [21]: 129%
viability, T/C [22]: 76.2%
viability, T/C [23]: 63.3%
viability, T/C [24]: 49.4%
viability, T/C [25]: 93.7%
viability, T/C [26]: 92.1%
viability, T/C [27]: 116%
viability, T/C [28]: 94.2%
viability, T/C [29]: 92.5%
viability, T/C [30]: 47.9%
viability, T/C [31]: 93.2%
viability, T/C [32]: 103%
viability, T/C [33]: 98.7%
viability, T/C [34]: 96.8%
viability, T/C [35]: 77.5%
viability, T/C [36]: 59.2%

COc1cccc(OCCCN)c1-c1cc(Nc2cnc(C#N)cn2)n[nH]1 + COC1C(OC(N)=O)C(O)C(Oc2ccc3c(O)c(NC(=O)c4ccc(O)c(CC=C(C)C)c4)c(=O)oc3c2C)OC1(C)C
IC50 (second compound 0.0316 µM): 0.0204 µM
IC50 (second compound 0.1 µM): 0.0198 µM
IC50 (second compound 0.316 µM): 0.0298 µM
IC50 (second compound 1 µM): 0.0175 µM
IC50 (second compound 3.16 µM): 0.0264 µM
IC50 (second compound 10 µM): 0.02 µM
viability, T/C (second compound 0.0316 µM, first compound 0.00316 µM): 90.8%
viability, T/C (second compound 0.0316 µM, first compound 0.01 µM): 55.7%
viability, T/C [1]: 51.2%
viability, T/C [2]: 33.5%
viability, T/C [3]: 34.4%
viability, T/C [4]: 36.2%
viability, T/C (second compound 0.1 µM, first compound 0.00316 µM): 90%
viability, T/C (second compound 0.1 µM, first compound 0.01 µM): 63.5%
viability, T/C [7]: 41.1%
viability, T/C [8]: 31.6%
viability, T/C [9]: 31.5%
viability, T/C [10]: 30.9%
viability, T/C (second compound 0.316 µM, first compound 0.00316 µM): 73.2%
viability, T/C (second compound 0.316 µM, first compound 0.01 µM): 66.6%
viability, T/C [13]: 47.8%
viability, T/C [14]: 38.8%
viability, T/C [15]: 33.8%
viability, T/C [16]: 31.7%
viability, T/C (second compound 1 µM, first compound 0.00316 µM): 87%
viability, T/C (second compound 1 µM, first compound 0.01 µM): 57.5%
viability, T/C [19]: 40.9%
viability, T/C [20]: 36.7%
viability, T/C [21]: 35%
viability, T/C [22]: 30%
viability, T/C (second compound 3.16 µM, first compound 0.00316 µM): 78.3%
viability, T/C (second compound 3.16 µM, first compound 0.01 µM): 61.5%
viability, T/C [25]: 48%
viability, T/C [26]: 38.2%
viability, T/C [27]: 31.4%
viability, T/C [28]: 28.6%
viability, T/C (second compound 10 µM, first compound 0.00316 µM): 81.7%
viability, T/C (second compound 10 µM, first compound 0.01 µM): 58.5%
viability, T/C [31]: 45.6%
viability, T/C [32]: 33.8%
viability, T/C [33]: 34.4%
viability, T/C [34]: 30.7%

From PubChem BioAssay AID1963831 (Molecular Pharmacology Branch, DTP, NCI, 2024)
